According to patent US10925858B2, “S-nitrosoglutathione (GSNO) and GSNO reductase inhibitors for use in therapy” (MUSC FOUNDATION FOR RESEARCH DEVELOPMENT, priority 2017, dated 2021):

Assays:
[1] = Edema (brain water content) in CCI rat model of TBI; format: in vivo, Sprague Dawley rats; conditions: 24 hr after TBI; GSNO 0.05 mg/kg i.v. or FeTPPS 3 mg/kg i.v.
Description: All animals used in this study received humane care in compliance with the Medical University of South Carolina's (MUSC) guidance and the National Research Council's criteria for humane care. Animal procedures were approved by the institutional animal care and use committee of MUSC (AR #2703). For generation of CCI model of TBI, young adult male (˜3-4 months old) Sprague Dawley rats weighing between 260-300 g were randomly divided into four groups: 1) TBI animals treated with vehicle (TBI; n=13), 2) TBI with GSNO (0.05 mg/kg body weight/i.v.) treatment (TBI+GSNO; n=13), 3) TBI with FeTPPS (3 mg/kg body weight, i.v.) treatment (TBI+FeTPPS; n=13), 4) sham-operated treated with vehicle (Sham; n=13). The group size was determined by power analysis based on our previous data (Khan et al., 2016b; Khan et al., 2009). Ketamine (90 mg/kg body weight) and xylazine (10 mg/kg body weight) as surgical anesthesia were administered intraperitoneally. Analgesic buprenorphine was administered pre-emptively to alleviate pain following surgery. […]
At 24 h following CCI, animals were euthanized to determine brain water content (edema) as described earlier (Hoda et al., 2009; Khan et al., 2009). […] Each hemisphere was dried at 60° C. for 72 hours, and the dry weight was determined. Water content was calculated in ipsilateral hemisphere as: water content (%)=(wet weight−dry weight)/wet weight×100.

[2] = test system: CD4+ T cells (TH1, TH2, TH17, Treg); assay: Fluorescence flow cytometry of CD4+ T cell subsets in spinal cords of EAE mice; format: in vivo, C57BL/6 mice; conditions: EAE mice at peak of disease, 1 mg/kg/day
Procedure: Female C57BL/6 mice of 8-12 weeks of age, purchased from Jackson Laboratory, were provided with food and water ad libitum and were kept in pathogen free animal care facility of Medical University of South Carolina (MUSC) throughout the study. All procedures were conducted in accordance with accepted standards of humane care as approved by the Institutional Animal Care and Use Committee (Approved number: AR #1644). EAE was induced as described previously (Nath et al., 2009). Briefly, mice were immunized subcutaneously in the flank regions with MOG35-55 peptide (MOG; 200 μg; Peptide International) emulsified (1:1) in 100 ul complete Freund's adjuvant (CFA) on day 0 and day 7. Additionally, 300 ng of Pertussis toxin (Sigma-Aldrich, St. Louis, Mo.) was given on day 0 and day 2 by i.p. injection. Pertussis toxin used as per the standardized protocol reported by us and other investigators for the induction of EAE (Nath et al., 2009). Similarly, healthy control group received subcutaneous injection of PBS and CFA emulsion on day 0 and day 7. Clinical signs of EAE were scored by examiners blinded to experimental treatments using the following scale: 0=no clinical signs of disease; 1=piloerection and sluggish; 2=limp tail (ataxia); 2.5=ataxia with partial hind limb paralysis; 3=full paralysis of hind limb; 3.5=full paralysis of hind limb with paralysis of one fore limb; 4=full paralysis of two limbs; 4.5=moribund stage; 5=death. […] The drug treatments were continued till the termination of the study (day 41 post immunization). EAE animals without drug treatment received PBS. Likewise, healthy controls received vehicle.
Fluorescence flow cytometry analysis for each subset of CD4+ T cells (TH1, TH2, TH17, CD4+CD25+ FOXP3+ Treg, and CD4+CD25+ FOXP3− Treg) were performed based on our previous report with modification (Nath et al., 2004). Briefly, control mice, EAE mice. EAE mice treated with GSNO. […] The isolated CD4+ T cells were then resuspended with complete RPMI-media in 12-well plates (5×10^6 cells' 2 ml per well) containing MOG peptide (25 μg/ml) for 48 hrs. Following the centrifugation, the resulted supernatants were collected for ELISA for CD4+ subset specific cytokines (see below). The cell pellets were washed with cell staining solution (ebioscience, Waltham, Mass. USA) and stained with fluorescence labeled antibody specific to IFN-γ for TH1. IL-4 for TH2, IL-17 for TH17, CD25+ for total Treg. CD25+ and FOXP3+ for FOXP3+ Treg, and CD25+ and FOXP3− for FOXP3-Tregs (ebioscience, Waltham, Mass., USA). The cells were counted and analyzed using Beackman Coulter instrument (Beckman Coulter, Inc., Brea, Calif., USA).

| SMILES | TBI-induced increase in brain water content [1] | number of CD4+ IFN-γ+ (TH1) cells in spinal cords [2] | number of CD4+ IL-17 (TH17) cells in spinal cords [2] | number of CD4+CD25+ FOXP3+ Treg cells in spinal cords [2] | number of CD4+CD25+ FOXP3− Treg cells in spinal cords [2] | number of total Treg cells (CD4+CD25+) in spinal cords [2] | number of TH2 cells in the CNS [2] |
| --- | --- | --- | --- | --- | --- | --- | --- |
| N[C@@H](CCC(=O)N[C@@H](CSN=O)C(=O)NCC(=O)O)C(=O)O [GSNO, S-nitrosoglutathione] | reduced | no obvious effect | significantly decreased | without altering | significantly increased | increased |  |
| Cc1cc(C(N)=O)ccc1-n1c(CCC(=O)O)ccc1-c1ccc(-n2ccnc2)cc1 [N6022, reference compound] |  | reduced | reduced | increased | increased |  | increased |
| Cl.O=S(=O)([O-])c1ccc(-c2c3nc(c(-c4ccc(S(=O)(=O)O)cc4)c4ccc([nH]4)c(-c4ccc(S(=O)(=O)O)cc4)c4nc(c(-c5ccc(S(=O)(=O)O)cc5)c5ccc2[nH]5)C=C4)C=C3)cc1.[Fe] [FeTPPS, 5,10,15,20-Tetrakis(4-sulfonatophenyl)porphyrinato Iron (III), Cl, reference compound] | reduced |  |  |  |  |  |  |
